Reference: patent US20030022876A1, “Sustained-release analgesic compounds” (priority 2001, published 2003)

Key:
[1] = Stability (half-life) in human plasma at 37° C., HPLC analysis; assay type: in vitro ADME; conditions: stock solution diluted 10 fold
Description: (§1) This stock solution was diluted 10 fold in either 0.1 M phosphate buffer, pH 7.4, or human plasma, and the working solution was placed in a water bath at 37° C. Samples had been taken every hour for the plasma and every couple of hours for the buffer.

[2] = Stability (half-life) in 0.1 M phosphate buffer, pH 7.4, at 37° C., HPLC analysis; assay type: physicochemical; conditions: pH 7.4, 37° C.
Description: as §1

Q: Which results are given for `CN1CC[C@]23c4c5ccc(OC(=O)Cc6ccccc6Nc6c(Cl)cccc6Cl)c4O[C@H]2[C@@H](O)C=C[C@H]3[C@H]1C5` [Inventive compound (10)]?
A: half-life at 0.1 mg/ml [1]: 0.35 ± 0.0167 h; half-life at 0.1 mg/ml [2]: 2.5 ± 0.5 h

Q: Which half-life at 0.1 mg/ml [1] does the source give for `COc1ccc2cc(C(C)C(=O)OCOC(=O)Oc3ccc4c5c3O[C@H]3[C@@H](O)C=CC6[C@@H](C4)N(C)CC[C@@]563)ccc2c1` (stereo partly shown) [Inventive compound (16)] here?
A: 0.0583 ± 0.01 h

Q: What about the half-life at 0.1 mg/ml [2] of the same compound?
A: 7.6 ± 0.5 h
